Laboratory results published in patent US20020142297A1, “Compositions and methods for imaging gene expression” (The General Hospital Corporation, a Massachusetts …, priority 1997, published 2002).

Key:
[1] = In vivo detection of RPCs in muscle tissue (gamma imaging after i.v. 99mTc gluceptate); conditions: rats, rectus femoris muscle injected with RPC; 1 hour after i.v. injection of 0.5 mCi 99mTc gluceptate
Method: RPCs having the sequences GGGCGGGCGGGC (SEQ ID NO: 13) and GGGCGGGC (SEQ ID NO: 14) were dissolved in sterile saline to give a concentration of 1 μM thiol (i.e., the —SH function groups of cysteine residues). 100 μl of this solution was injected into the rectus femoris muscles of anesthetized rats. Ten minutes after injection, 0.5 mCi of ^99mTc gluceptate-[bis(oxotechnetate(v)glucoheptonate] anion was injected via intravenous catheter. The animals were imaged at 10 minutes and at 1 hour after the injection of the isotope. It was suspected that Tc glucoheptonate can permeate into the interstitium and be taken up non-specifically (e.g., by pinocytosis) by resident cells, thus creating background activity.
Nonetheless, the radioactivity that had accumulated in the injected muscle 1 hour after injection with the RPC containing three consecutive GGGC repeats (SEQ ID NO: 13) or two consecutive GGGC repeats (SEQ ID NO: 14) were 3- or 2-fold higher, respectively, than the radioactivity that had accumulated in the contralateral (control) muscle at that time. No differences in radioactivity accumulated in injected vs. control muscles were detected in animals injected with saline, or an RPC pretreated with N-ethylmaleimide to block oxotechnetate-binding sites.

[2] = Labeling of RPC with 99mTc-glucoheptonate and stability of the metal-RPC complex by reverse-phase HPLC; format: binding
Method: The tetrapeptide WGGC (SEQ ID NO: 1) was incubated with ^99mTc-gluccheptonate. […] The label was ascertained to be stably associated with the peptide for at least 24 hours as determined by reverse-phase high performance liquid chromatography (HPLC) (see, FIG. 7).
FIGS. 6 and 7 are the HPLC traces corresponding to the binding 30 minutes and 24 hours post-injection, respectively. In both traces, the bold line represents radioactivity and the thin line represents absorbance. The naked ^99mTc-glucoheptonate has a retention time of 2 minutes, while the RPC-Tc complex has a retention time of 5 to 9 minutes.

Substance | radioactivity accumulated in the injected muscle vs. the contralateral (control) muscle [1] [fold] | radiation at 2 minutes (retention time of naked 99mTc-glucoheptonate) ([2]; 30 minutes, HPLC radioactivity trace (FIG. 6)) | share of total integral at 2 minutes (retention time of naked 99mTc-glucoheptonate) ([2]; 24 hours, HPLC radioactivity trace (FIG. 7)) [%] | labeling of the peptide ([2]; incubated with 99mTc-glucoheptonate, within 30 minutes) [%] | time the label is stably associated with the peptide ([2]; reverse-phase HPLC)
GGGCGGGC [SEQ ID NO: 14, RPC containing two consecutive GGGC repeats] | 2 |  |  |  | 
GGGCGGGCGGGC [SEQ ID NO: 13] | 3 |  |  |  | 
WGGC |  | no radiation is observed above the baseline | 0.468 | 99 | at least 24 hours
